Experimental data from patent US5856506A, “Phosphatase inhibitors and methods of use thereof” (University of Pittsburgh, priority 1997, dated 1999).

These compounds were tested on Recombinant human CDC25B (assay: CDC25B phosphatase assay, GST fusion protein, fluorescein diphosphate). Conditions: none = 100; 1 hour preincubation; concentration not given (0.3-100 μM tested).
Format: biochemical
Description: The compounds of the present invention are also capable of inhibiting dual specificity phosphatases, for example CDC25A and CDC25B. Phosphatases CDC25A and CDC25B are disclosed in U.S. Pat. No. 5,441,880. Inhibition of dual specificity phosphatases is defined herein as inhibition of the activity of CDC25A and/or CDC25B at a concentration of 100 μM of the inhibitor compound. In a preferred embodiment, the activity of the phosphatase is inhibited by at least 10%. In more preferred embodiments, the activity of the phophatase is inhibited by at least 25%, or even more preferably, by at least 50%. The ability of the compounds of the present invention to inhibit the phosphatases can be determined by measuring the effect of the compounds on the ability of CDC25 or CDC25B to dephosphorylate a substrate. Appropriate methods are known to those of ordinary skill in the art, and include, for example, calorimetric assays. A suitable assay is described in U.S. Pat. No. 5,441,880, the disclosure of which is incorporated herein by reference. […] The assay may be performed as a rapid calorimetric microtitration plate assay.
Compounds 1a-1r were assessed for ability to inhibit CDC25A and CDC25B activity. Recombinant human CDC25A and CDC25B were obtained as a glutahione-S-transferase (GST) fusion protein using human cDNA and standard molecular biological methods. The cDNA constructs are in a plasmid that is expressed in E. coli under the control of isopropyl-beta-D-[…] (IPTG). The bacterial pellet was disrupted by sonication, and centrifuged at 10,000×g. Using glutathione-agarose beads, the fusion protein was purified from postmicrosomal supernant fraction as described by Baratte et al. (1992) Anticancer Res. 12: 873-880. Phosphatase activity was assayed with a spectrofluorimeter under the following conditions: 1 unit (1 U=amount of protein that induces 33 fluoresence units/minute of product) of fusion protein in a final incubation mixture (150 μL) comprised of 25 mM Tris (pH=8.0), 5 mM EDTA, 33 μg/ml BSA, and 20 μM fluorescein diphosphate in 96-well microtiter plates. Plates were preincubated for 1 hour with 0 (control), 0.3, 1, 3, 10, 30, 100 μM compounds at room temperature. After the 1 hour incubation at room temperature, fluorescence of the fluorescein product (Ex. 485 nm; Em. 530 nm) were measured with a Biosystems Cytofluor II (Framingham, Mass.).

Compound	CDC25B activity remaining, percent of control
CCCCCCN(CCNC(=O)c1nc(-c2ccccc2)oc1-c1ccccc1)C(=O)CCC(NC(=O)C=Cc1ccccc1)C(=O)O (stereo not drawn) [Compound 1q]	62%
CCCCCCN(CCNC(=O)c1nc(-c2ccccc2)oc1C)C(=O)CCC(NC(=O)C=Cc1ccccc1)C(=O)O (stereo not drawn) [Compound 1n]	66%
CCCCCCN(CCNC(=O)c1nc(-c2ccccc2)oc1-c1ccccc1)C(=O)CCC(NC(=O)CCc1ccccc1)C(=O)O (stereo not drawn) [Compound 1k]	76%
CN(CCNC(=O)c1nc(-c2ccccc2)oc1-c1ccccc1)C(=O)CCC(NC(=O)C=Cc1ccccc1)C(=O)O (stereo not drawn) [Compound 1p]	87%
CCCCCCCCCC(=O)NC(CCC(=O)N(CCNC(=O)c1nc(-c2ccccc2)oc1C)Cc1ccccc1)C(=O)O (stereo not drawn) [Compound 1c]	42%
Cc1oc(-c2ccccc2)nc1C(=O)NCCN(C)C(=O)CCC(NC(=O)CCc1ccccc1)C(=O)O (stereo not drawn) [Compound 1g]	61%
Cc1oc(-c2ccccc2)nc1C(=O)NCCN(C)C(=O)CCC(NC(=O)C=Cc1ccccc1)C(=O)O (stereo not drawn) [Compound 1m]	45%

What follows are compounds tested on PP1 (assay: Phosphatase activity by [32P] release from phosphorylase-a or phosphohistone (Honkanen method)). Conditions: 100 μM inhibitor; none = 100.
Format: biochemical
Description: (§1) It has been found in accordance with the present invention that compounds of formula I are capable of inhibiting serine/threonine protein phosphatases. Inhibition of serine/threonine protein phosphatases is defined herein as inhibition of the activity of one or more of PP1, PP2A or PP3 at a concentration of 100 μM or less of the inhibitor compound. In a preferred embodiment, the activity of the phosphatase is inhibited by at least 10%. In more preferred embodiments, the activity of the phophatase is inhibited by at least 25%, or even more preferably, by at least 50%. Inhibition of PP1, PP2A or PP3 can be assessed by methods known to one of ordinary skill in the art. Suitable assays are described, for example by Honkanen et al. (1994) Toxicon 32:339 and Honkanen et al. (1990) J. Biol. Chem. 265: 19401, the disclosures of which are incorporated herein by reference. Briefly, phosphatase activity is determined by quantifying the [^32 p] released from a ^32 p-labeled substrate such as phosphohistone or phosphorylase-a. Decreased [^32 p] release in the presence of the compounds of the present invention relative to control samples provides a measure of the ability of the compounds of the invention to inhibit PP1, PP2A or PP3.
(§2) Phosphatase activity and the inhibitory activity of the compounds of Table 1 were determined by the method of Honkanen et al. (1994) Toxicon 32:339. Briefly, phosphatase activity against phosphorylase-a or phosphohistone was 25 determined by the quantification of liberated [^32 p]. Assays, 80 μl total volume, containing 50 mM Tris-HCl, pH 7.4, 0.5 mM DTT, 1 mM EDTA (assay buffer) and [^32 p]phosphoprotein (1-2 μM PO4), were conducted as described previously (Honkanen et al., 1991 Mol. Pharmac. 40:577). Dephosphorylation reactions were routinely conducted for 5-10 min. using phosphorylase-a as a substrate and for 10-20 min. using phosphohistone. In all assays the dephosphorylation of substrate was kept to less than 10% of the total phosphorylated substrate available, and the reactions were adjusted to ensure that enzyme activity was linear with respect to enzyme concentration and time. [^32 p]Phosphate liberated by the enzymes was extracted as a phosphomolybdate complex and measured according to the methods of Killilea et al. (1978) Arch. Biochem. Biophys. 191:638. Inhibition of protein phosphatase activity by inhibitors was determined by adding the 100 μM of inhibitors to the enzyme mixture 5-10 min. prior to initiating the reaction with the addition of substrate.

Compound	PP1 remaining activity, percent of control
CCCCCCN(CCNC(=O)c1nc(-c2ccccc2)oc1-c1ccccc1)C(=O)CCC(NC(=O)C=Cc1ccccc1)C(=O)O (stereo not drawn) [Compound 1q]	85%
CCCCCCN(CCNC(=O)c1nc(-c2ccccc2)oc1C)C(=O)CCC(NC(=O)C=Cc1ccccc1)C(=O)O (stereo not drawn) [Compound 1n]	40%
CCCCCCN(CCNC(=O)c1nc(-c2ccccc2)oc1-c1ccccc1)C(=O)CCC(NC(=O)CCc1ccccc1)C(=O)O (stereo not drawn) [Compound 1k]	48%
CN(CCNC(=O)c1nc(-c2ccccc2)oc1-c1ccccc1)C(=O)CCC(NC(=O)C=Cc1ccccc1)C(=O)O (stereo not drawn) [Compound 1p]	65%
Cc1oc(-c2ccccc2)nc1C(=O)NCCN(C)C(=O)CCC(NC(=O)CCc1ccccc1)C(=O)O (stereo not drawn) [Compound 1g]	53%
Cc1oc(-c2ccccc2)nc1C(=O)NCCN(C)C(=O)CCC(NC(=O)C=Cc1ccccc1)C(=O)O (stereo not drawn) [Compound 1m]	111%

What follows are compounds tested against PP2A (Bos taurus, UniProt P67774) in the same assay as above. Conditions: 100 μM inhibitor; none = 100; read-out: PP2A, percent inhibition relative to control (100%).
Format: biochemical
Description: as §1, §2

Sequence of PP2A (P67774 whole entry): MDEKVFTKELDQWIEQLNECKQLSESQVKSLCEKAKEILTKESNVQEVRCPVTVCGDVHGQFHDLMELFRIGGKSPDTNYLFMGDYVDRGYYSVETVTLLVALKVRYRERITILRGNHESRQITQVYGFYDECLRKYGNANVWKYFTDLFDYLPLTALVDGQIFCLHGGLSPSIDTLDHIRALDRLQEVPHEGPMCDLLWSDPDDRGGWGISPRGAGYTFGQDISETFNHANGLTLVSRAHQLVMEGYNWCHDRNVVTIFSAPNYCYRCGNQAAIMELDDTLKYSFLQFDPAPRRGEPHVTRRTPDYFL

Compound	PP2A remaining activity, % of control at 100 µM
CCCCCCN(CCNC(=O)c1nc(-c2ccccc2)oc1-c1ccccc1)C(=O)CCC(NC(=O)C=Cc1ccccc1)C(=O)O (stereo not drawn) [Compound 1q]	60%
CCCCCCN(CCNC(=O)c1nc(-c2ccccc2)oc1C)C(=O)CCC(NC(=O)C=Cc1ccccc1)C(=O)O (stereo not drawn) [Compound 1n]	87%
CCCCCCN(CCNC(=O)c1nc(-c2ccccc2)oc1-c1ccccc1)C(=O)CCC(NC(=O)CCc1ccccc1)C(=O)O (stereo not drawn) [Compound 1k]	67%
CN(CCNC(=O)c1nc(-c2ccccc2)oc1-c1ccccc1)C(=O)CCC(NC(=O)C=Cc1ccccc1)C(=O)O (stereo not drawn) [Compound 1p]	99%
CCCCCCCCCC(=O)NC(CCC(=O)N(CCNC(=O)c1nc(-c2ccccc2)oc1C)Cc1ccccc1)C(=O)O (stereo not drawn) [Compound 1c]	129%
Cc1oc(-c2ccccc2)nc1C(=O)NCCN(C)C(=O)CCC(NC(=O)CCc1ccccc1)C(=O)O (stereo not drawn) [Compound 1g]	109%
Cc1oc(-c2ccccc2)nc1C(=O)NCCN(C)C(=O)CCC(NC(=O)C=Cc1ccccc1)C(=O)O (stereo not drawn) [Compound 1m]	108%

Each compound was assayed on PP3 in the same assay as above. Conditions: 100 μM inhibitor; none = 100.
Format: biochemical
Description: as §1, §2

Compound	PP3 remaining activity, percent of control
CCCCCCN(CCNC(=O)c1nc(-c2ccccc2)oc1-c1ccccc1)C(=O)CCC(NC(=O)C=Cc1ccccc1)C(=O)O (stereo not drawn) [Compound 1q]	28%
CCCCCCN(CCNC(=O)c1nc(-c2ccccc2)oc1C)C(=O)CCC(NC(=O)C=Cc1ccccc1)C(=O)O (stereo not drawn) [Compound 1n]	26%
CCCCCCN(CCNC(=O)c1nc(-c2ccccc2)oc1-c1ccccc1)C(=O)CCC(NC(=O)CCc1ccccc1)C(=O)O (stereo not drawn) [Compound 1k]	24%
CN(CCNC(=O)c1nc(-c2ccccc2)oc1-c1ccccc1)C(=O)CCC(NC(=O)C=Cc1ccccc1)C(=O)O (stereo not drawn) [Compound 1p]	68%
CCCCCCCCCC(=O)NC(CCC(=O)N(CCNC(=O)c1nc(-c2ccccc2)oc1C)Cc1ccccc1)C(=O)O (stereo not drawn) [Compound 1c]	28%
Cc1oc(-c2ccccc2)nc1C(=O)NCCN(C)C(=O)CCC(NC(=O)CCc1ccccc1)C(=O)O (stereo not drawn) [Compound 1g]	21%
Cc1oc(-c2ccccc2)nc1C(=O)NCCN(C)C(=O)CCC(NC(=O)C=Cc1ccccc1)C(=O)O (stereo not drawn) [Compound 1m]	60%
